Assay results published in ChEMBL document CHEMBL1143013, “4-aryl-5-(4-piperidyl)-3-isoxazolol GABAA antagonists: synthesis, pharmacology, and structure-activity relationships” (J Med Chem, 2007).
Calls of active or inactive are those of the source. The calls are words filed in the database; no cut-off is given here.

Key:
[1] = Displacement of [3H]muscimol from GABAA receptor in Sprague-Dawley rat brain synaptic membrane
[2] = organism: Rattus norvegicus; assay: Displacement of [3H]GABA from GABAB receptor in Sprague-Dawley rat brain synaptic membrane at 100 uM
[3] = target: T1, GABA-A receptor; alpha-1/beta-3/gamma-2 (Homo sapiens, UniProt P14867+P18507+P28472); assay: Antagonist activity at human GABAA alpha-1-beta-3-gamma-2S expressed in Xenopus oocytes by two-electrode voltage-clamp electrophysiology; format: functional, cell-based, Oocyte
T1 sequence (P14867 whole entry): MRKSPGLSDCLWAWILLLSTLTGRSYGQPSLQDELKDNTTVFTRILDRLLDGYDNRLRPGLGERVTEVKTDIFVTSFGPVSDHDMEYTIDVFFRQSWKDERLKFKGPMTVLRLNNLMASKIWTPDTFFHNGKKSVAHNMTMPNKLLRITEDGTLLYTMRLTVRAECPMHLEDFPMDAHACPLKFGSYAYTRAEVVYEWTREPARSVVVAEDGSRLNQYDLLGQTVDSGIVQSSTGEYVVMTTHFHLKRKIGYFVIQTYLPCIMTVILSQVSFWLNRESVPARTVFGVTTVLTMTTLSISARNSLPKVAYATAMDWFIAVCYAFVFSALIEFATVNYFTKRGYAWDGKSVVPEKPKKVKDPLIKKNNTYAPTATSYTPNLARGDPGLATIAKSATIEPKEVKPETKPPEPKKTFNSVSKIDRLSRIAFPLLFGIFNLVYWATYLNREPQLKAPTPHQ
T1 sequence (P18507 whole entry): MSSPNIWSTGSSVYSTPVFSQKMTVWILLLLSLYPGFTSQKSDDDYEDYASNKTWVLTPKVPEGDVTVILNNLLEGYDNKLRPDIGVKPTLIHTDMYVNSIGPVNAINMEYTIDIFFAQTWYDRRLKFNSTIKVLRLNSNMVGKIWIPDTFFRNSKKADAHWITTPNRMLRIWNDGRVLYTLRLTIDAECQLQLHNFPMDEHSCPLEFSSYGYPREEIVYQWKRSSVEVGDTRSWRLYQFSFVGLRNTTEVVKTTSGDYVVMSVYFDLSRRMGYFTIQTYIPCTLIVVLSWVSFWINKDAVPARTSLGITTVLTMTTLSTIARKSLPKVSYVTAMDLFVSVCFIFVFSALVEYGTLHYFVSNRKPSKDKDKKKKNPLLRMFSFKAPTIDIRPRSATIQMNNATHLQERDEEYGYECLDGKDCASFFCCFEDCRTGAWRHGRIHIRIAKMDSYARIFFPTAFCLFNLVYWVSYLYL
T1 sequence (P28472 whole entry): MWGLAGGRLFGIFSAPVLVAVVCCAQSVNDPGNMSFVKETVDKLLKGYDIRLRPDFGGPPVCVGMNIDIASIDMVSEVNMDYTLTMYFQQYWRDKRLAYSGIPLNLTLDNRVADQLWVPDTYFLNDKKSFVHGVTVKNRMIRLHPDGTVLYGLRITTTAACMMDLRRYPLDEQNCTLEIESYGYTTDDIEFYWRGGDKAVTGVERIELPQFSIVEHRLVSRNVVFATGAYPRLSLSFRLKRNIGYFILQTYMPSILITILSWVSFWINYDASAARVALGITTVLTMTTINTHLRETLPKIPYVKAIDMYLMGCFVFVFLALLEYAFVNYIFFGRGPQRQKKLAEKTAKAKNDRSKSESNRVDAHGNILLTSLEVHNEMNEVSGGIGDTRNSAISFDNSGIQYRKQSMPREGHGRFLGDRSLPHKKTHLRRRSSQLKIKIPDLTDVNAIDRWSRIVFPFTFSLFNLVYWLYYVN

Row | Compound | Ki [1] [nM] | Activity [2] | Ki ([3]; read-out: Ki) [nM] | Log Ki [1] | Ki ([3]; read-out: Log Ki (converted)) [nM]
1 | Oc1noc(C2CCNCC2)c1Cc1ccc2ccccc2c1-c1ccccc1 | 21 | inactive | 198 |  | 
2 | Oc1noc(C2CCNCC2)c1-c1ccc2ccccc2c1 | 36 | inactive | 141 |  | 
3 | Br.Oc1noc(C2CCNCC2)c1-c1cccc(-c2ccccc2)c1 | 10 | inactive | 10 | -8 | 
4 | Oc1noc(C2CCNCC2)c1Cc1ccc2ccccc2c1 | 49 | inactive |  |  | 
5 | Br.Oc1noc(C2CCNCC2)c1-c1ccc(Oc2ccccc2)cc1 | 70 | inactive | 8 | -7.15 | 
6 | Oc1noc(C2CCNCC2)c1-c1cccc2ccccc12 | 820 | inactive |  |  | 
7 | O=c1[nH]oc(C2CCNCC2)c1-c1cccc2ccccc12 |  |  | 334 |  | 
8 | Br.Oc1noc(C2CCNCC2)c1-c1cccnc1 | 955 | inactive | 427 | -6.02 | 479
9 | Oc1cc(C2CCNCC2)on1 |  | inactive |  |  | 
10 | Br.Oc1noc(C2CCNCC2)c1-c1ccc(-c2ccccc2)cc1 | 195 | inactive | 71 | -6.71 | 
11 | Oc1noc(C2CCNCC2)c1-c1ccccc1 | 220 | inactive | 159 |  | 
12 | Br.Oc1noc(C2CCNCC2)c1-c1csc(-c2ccccc2)c1 | 25 | inactive | 9 | -7.61 | 
13 | Br.CC(C)(C)c1ccc(-c2c(O)noc2C2CCNCC2)cc1 | 6980 | inactive | 257 | -5.16 | 
14 | Br.O=[N+]([O-])c1cccc(-c2c(O)noc2C2CCNCC2)c1 | 234 | inactive | 138 | -6.63 | 

Now from value to compound:

Row | Ki [1] [nM] | Activity [2] | Ki ([3]; read-out: Ki) [nM] | Log Ki [1] | Ki ([3]; read-out: Log Ki (converted)) [nM] | Compound
15 | 317 | inactive | 76 | -6.5 |  | Br.Oc1noc(C2CCNCC2)c1-c1ccsc1
16 | 84 | inactive | 59 | -7.07 |  | Br.Br.Nc1cccc(-c2c(O)noc2C2CCNCC2)c1
17 | 2420 | inactive | 204 | -5.62 |  | Br.Oc1noc(C2CCNCC2)c1-c1ccc(Cl)cc1
18 | 851 | inactive | 129 | -6.07 |  | Br.Oc1noc(C2CCNCC2)c1-c1ccccc1Cl
19 | 58 | inactive | 48 | -7.24 |  | Br.Oc1noc(C2CCNCC2)c1-c1cccc(Cl)c1
20 | 77 | inactive | 68 | -7.11 |  | Br.Oc1noc(C2CCNCC2)c1-c1cc(Cl)cc(Cl)c1
